pIC50: −log10 of the molar value.
Tests used:
MDCKII-MDR1 cells = assay: MDCK-MDR1 permeability assay; type: in vitro ADME, canine; conditions: A to B, n = 2
Experimental: (§1) MDCKII-MDR1 cells were seeded on Millicell-24 cell culture insert plate assemblies at a final concentration of 0.12 × 10^6 cells/well. Cells were cultured in a CO2 incubator for 3–4 days prior to experiment start with media replacement 24 h post seeding. On the day of the experiment, cells were preincubated for 45 min with Dulbecco’s Phosphate Buffer saline (D-PBS, pH7.4), containing 1% of DMSO. Compounds were prepared in D-PBS, pH 7.4 and added to either the apical or basolateral chambers of the Millicell cell culture insert plates assembly at a final concentration of 10 μM with a final DMSO concentration of 1%. Lucifer Yellow was added to all donor buffer solutions in order to assess integrity of the cell monolayers by monitoring Lucifer Yellow permeation. […] After brief mixing and centrifugation, the supernatant was analyzed by LC-MS/MS. The apparent permeability coefficient (Papp) was calculated according to the following equation: Papp = (dQ/dT)(1/C0)(1/A), where dQ/dT = permeability rate; C0 = initial concentration in donor compartment; A = surface area of the cell monolayer (0.7 cm^2). […] The efflux ratio is calculated as Papp from B to A divided by Papp from A to B. Passive permeability (×10^–6 cm/s) is calculated by the formula: Papp from A to B × efflux ratio + 1/2.

[1] = MDCK-MDR1 permeability assay; type: in vitro ADME, canine; conditions: dog, MDCK-MDR1, pH 7.4; A to B, n = 2; read-out: MDCK-MDR1 PA2B
Experimental: as §1

[2] = Hepatocyte stability, mouse; type: in vitro ADME; conditions: mouse hepatocytes
Experimental: (§2) The hepatocyte stability assay was performed by incubation of test compound at 1 μM, 0.03% DMSO in modified Krebs–Henseleit buffer with suspension of pooled cryopreserved hepatocytes (BioIVT, Hicksville, NY, USA) from mouse, rat, dog, or human (BioIVT, Hicksville, NY, USA) at 0.5 million viable hepatocytes/mL. Before adding the hepatocytes (time zero) and after 10, 20, 45, 90, 120, and 180 min of incubation (n = 2) at 37 °C while gently shaking, the reaction was stopped and proteins were precipitated with an excess of acetonitrile containing an internal standard. The samples were mixed, centrifuged, and filtered, and the supernatant was analyzed by liquid chromatography–mass spectrometry/mass spectrometry (LC–MS/MS). The instrument responses (peak areas/IS peak areas) were referenced to the zero-time point samples (considered as 100%) in order to determine the percentage of compound remaining.

Caco-2 cells = assay: Intestinal permeability on Caco-2 cells; type: in vitro ADME, human; conditions: A to B, n = 1
Experimental: (§3) Caco-2 cells were obtained from the European Collection of Cell Cultures (ECACC) and used after a 21-day cell culture in 24-well Transwell plates. Test compounds and the references (vinblastine and propranolol) were prepared in protein-free Hanks’ balanced salt solution containing 25 mM HEPES (pH 7.4) at a concentration of 10 μM and added to either the apical or basolateral chambers of a Transwell plate assembly. Before the experiment, the integrity of the monolayer was checked by measuring the transepithelial resistance. Lucifer yellow (LY) was added to the donor buffer in all wells to assess the integrity of the cell layers by monitoring LY permeation. As LY cannot freely permeate lipophilic barriers, a high degree of LY transport indicates poor integrity of the cell layer. […] Concentrations of the compound in the samples were measured by LC–MS/MS. Apparent permeability (Papp) coefficients were calculated from the relationship: Papp = dQ/dt × 1/A × C0, where Papp is the apparent permeability coefficient (cm s^–1), dQ/dt is the amount of drug permeated per unit of time, A is the effective surface area of the artificial membrane exposed to the medium, and C0 is the initial drug concentration in the donor compartment. The efflux ratios, as an indication of active efflux from the apical cell surface, were calculated using the ratio of Papp(B → A)/Papp(A → B).

[3] = Intestinal permeability on Caco-2 cells; type: in vitro ADME, human; conditions: human, Caco-2, pH 7.4; A to B, n = 1; read-out: Caco-2 PA2B
Experimental: as §3

[4] = Hepatocyte stability, monkey; type: in vitro ADME; conditions: monkey hepatocytes
Experimental: as §2

CYP2D6 = biological target: T1, CYP2D6 (Homo sapiens, UniProt P10635); assay: CYP reversible inhibition in HLM, CYP2D6; type: in vitro ADME; conditions: probe dextromethorphan
T1 construct: tissue BD Gentest; host or cells: human liver microsomes
Experimental: Test compounds were diluted in methanol and then added to mixture containing 50 mM potassium phosphate buffer, pH 7.4, human liver microsomes (BD Gentest) and probe substrate. After prewarming for 5 min at 37 °C, the reaction was started by adding cofactor mix (7.65 mg/mL glucose-6-phosphate, 1.7 mg/mL NADP, 6 U/mL of glucose-6-phosphate dehydrogenase), resulting in seven final concentrations of test compounds in the range 0.14–100 μM (2% methanol). Isoform specific conditions regarding probe substrate and microsomal protein concentrations are available in Table 2. Final concentrations of cofactor mix components were as follows: 1.56 mg/mL glucose-6-phosphate, 0.34 mg/mL NADP, and 1.2 U/mL glucose-6-phosphate dehydrogenase. After incubation at 37 °C, the reaction was terminated with acetonitrile:methanol (2:1) solution with internal standard. Samples were centrifuged, and the supernatant fractions were analyzed by LC-MS/MS. The instrument responses (test compounds and internal standard peak areas) were referenced to those for solvent controls (assumed as 100%) in order to determine the percentage reduction in probe metabolism. Percent of control activity vs concentration plots were generated and fitted using GraphPad Prism software to generate IC50.

T1 sequence (P10635 whole entry): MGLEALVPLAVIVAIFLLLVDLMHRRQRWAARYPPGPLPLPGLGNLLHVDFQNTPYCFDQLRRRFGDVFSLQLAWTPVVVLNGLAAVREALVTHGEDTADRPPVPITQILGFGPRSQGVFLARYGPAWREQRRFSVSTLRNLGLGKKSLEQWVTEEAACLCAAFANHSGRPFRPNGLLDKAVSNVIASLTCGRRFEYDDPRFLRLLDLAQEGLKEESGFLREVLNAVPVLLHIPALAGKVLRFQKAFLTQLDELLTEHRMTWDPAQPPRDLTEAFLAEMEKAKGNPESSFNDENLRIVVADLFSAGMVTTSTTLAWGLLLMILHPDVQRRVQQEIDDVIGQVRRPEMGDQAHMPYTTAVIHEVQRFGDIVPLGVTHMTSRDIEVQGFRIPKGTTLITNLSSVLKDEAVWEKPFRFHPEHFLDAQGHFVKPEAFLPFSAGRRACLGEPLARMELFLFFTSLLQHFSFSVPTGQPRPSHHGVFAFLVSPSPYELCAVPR

## COC1CCN(C2CCN(c3cc(C(=O)NS(=O)(=O)N(C)C)nc4c3c(C3CCC3)nn4-c3ccc(F)cc3)CC2)CC1 [Compound 52, 3-Cyclobutyl-N-(N,N-dimethylsulfamoyl)-1-(4-fluorophenyl)-4-(4-methoxy-[1,4′-bipiperidin]-1′-yl)-1H-pyrazolo[3,4-b]pyridine-6-carboxamide]
MDCKII-MDR1 cells
  MDCK-MDR1 PA2B: 5.45 cm × 10^–6 s^–1
[1]
  Papp A→B at 1 h, 10 μM: 5.45 ×10⁻⁶ cm/s
[2]
  Hepatocyte stability: %LBF mouse: 24 %LBF
[2]; 1 µM
  Hepatocyte stability: predicted hepCl mouse: 31.7 mL/min/kg
Caco-2 cells
  Caco-2 PA2B: 24.5 cm × 10^–6 s^–1
[3]
  Papp A→B at 1 h, 10 μM: 24.5 ×10⁻⁶ cm/s
[4]
  Hepatocyte stability: %LBF monkey: 65 %LBF
[4]; 1 µM
  Hepatocyte stability: predicted hepCl monkey: 28.8 mL/min/kg
CYP2D6
  pIC50: < 4.00
